Earlier results in US20140005177A1, “PYRIDINYL- AND PYRAZINYL-METHYLOXY-ARYL DERIVATIVES USEFUL AS INHIBITORS OF SPLEEN TYROSINE KINASE (SYK)” (GLAXO GROUP LIMITED, priority 2011, published 2014).

Tests used:
B lymphoma (BKS-2) = details: murine BKS-2 B lymphoma model; cited from earlier work
[1] = dosed intranasally, phase I/II, allergic rhinitis; cited from earlier work
[2] = further phase II clinical trial, allergic rhinitis; cited from earlier work

## COc1cc(/C=C/C(=O)CC(=O)/C=C/c2ccc(O)c(OC)c2)ccc1O [curcumin]
B lymphoma (BKS-2)
  tumour burden as measured by the total splenocyte number: significant reduction of tumour burden

## Oc1cccc(Nc2ncc(F)c(Nc3cccc(O)c3)n2)c1 [Example R112]
[1]
  PGD2: statistically significant decrease
  clinical safety: safe across a range of indicators
[2]
  efficacy versus placebo: lack of efficacy versus placebo
